Measured values taken from the supplement of paper PMC10307832.

How the values were obtained:
Experiment in all cases: relative viability (nuclei count vs DMSO), 5 days (fraction); higher = more cells survive
MK-2206 + Decitabine = compound: NC1(c2ccc(-c3nc4ccn5c(=O)[nH]nc5c4cc3-c3ccccc3)cc2)CCC1 [MK-2206] + Nc1ncn([C@H]2C[C@H](O)[C@@H](CO)O2)c(=O)n1 [Decitabine] (partner 2 µM)
Method in brief: (§1)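 The day after seeding in 1536-well plates, lung cancer cell lines were treated by pin tool with a single drug, or with a fixed anchor-drug dose together with five library-drug doses (not always all listed) in √10 steps. After 5 days, a combined fix-and-stain solution (final 0.05% Triton X-100, 1% formaldehyde, 1 ug/ml Hoechst) was added. Nuclei counted on 4× images gave relative viability as treated counts over vehicle counts, reported as the median of duplicate plates.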

Pictilisib + Navitoclax = compound: CS(=O)(=O)N1CCN(Cc2cc3nc(-c4cccc5[nH]ncc45)nc(N4CCOCC4)c3s2)CC1 [Pictilisib] + CC1(C)CCC(c2ccc(Cl)cc2)=C(CN2CCN(c3ccc(C(=O)NS(=O)(=O)c4ccc(N[C@H](CCN5CCOCC5)CSc5ccccc5)c(S(=O)(=O)C(F)(F)F)c4)cc3)CC2)C1 [Navitoclax] (partner 0.5 µM)
Method in brief: as §1

Pictilisib + Palbociclib = compound: CS(=O)(=O)N1CCN(Cc2cc3nc(-c4cccc5[nH]ncc45)nc(N4CCOCC4)c3s2)CC1 [Pictilisib] + CC(=O)c1c(C)c2cnc(Nc3ccc(N4CCNCC4)cn3)nc2n(C2CCCC2)c1=O [Palbociclib] (partner 0.5 µM)
Method in brief: as §1

MK-2206 + Foretinib = compound: NC1(c2ccc(-c3nc4ccn5c(=O)[nH]nc5c4cc3-c3ccccc3)cc2)CCC1 [MK-2206] + COc1cc2c(Oc3ccc(NC(=O)C4(C(=O)Nc5ccc(F)cc5)CC4)cc3F)ccnc2cc1OCCCN1CCOCC1 [Foretinib] (partner 0.25 µM)
Method in brief: as §1

MK-2206 + Luminespib = compound: NC1(c2ccc(-c3nc4ccn5c(=O)[nH]nc5c4cc3-c3ccccc3)cc2)CCC1 [MK-2206] + CCNC(=O)c1noc(-c2cc(C(C)C)c(O)cc2O)c1-c1ccc(CN2CCOCC2)cc1 [Luminespib] (partner 0.01 µM)
Method in brief: as §1

Cell Line | relative viability (MK-2206 + Decitabine; first compound 0.01 µM) | relative viability (MK-2206 + Decitabine; first compound 0.03162 µM) | relative viability (MK-2206 + Decitabine; first compound 0.3162 µM) | relative viability (MK-2206 + Decitabine; first compound 1 µM) | relative viability (Pictilisib + Navitoclax; first compound 0.02 µM) | relative viability (Pictilisib + Navitoclax; first compound 0.06325 µM) | relative viability (Pictilisib + Navitoclax; first compound 0.6325 µM) | relative viability (Pictilisib + Navitoclax; first compound 2 µM) | relative viability (Pictilisib + Palbociclib; first compound 0.02 µM) | relative viability (Pictilisib + Palbociclib; first compound 0.06325 µM) | relative viability (Pictilisib + Palbociclib; first compound 0.6325 µM) | relative viability (Pictilisib + Palbociclib; first compound 2 µM) | relative viability (MK-2206 + Foretinib; first compound 0.01 µM) | relative viability (MK-2206 + Foretinib; first compound 0.03162 µM) | relative viability (MK-2206 + Foretinib; first compound 0.3162 µM) | relative viability (MK-2206 + Foretinib; first compound 1 µM) | relative viability (MK-2206 + Luminespib; first compound 0.01 µM) | relative viability (MK-2206 + Luminespib; first compound 0.03162 µM) | relative viability (MK-2206 + Luminespib; first compound 0.3162 µM) | relative viability (MK-2206 + Luminespib; first compound 1 µM)
NCI-H2126 | 0.575 | 0.528 | 0.526 | 0.574 | 0.855 | 0.836 | 0.747 | 0.636 | 0.357 | 0.317 | 0.32 | 0.341 | 1.14 | 1.17 | 1.18 | 1.13 | 0.9 | 0.877 | 0.856 | 0.752
NCI-H2170 | 0.482 | 0.462 | 0.462 | 0.443 | 0.619 | 0.487 | 0.452 | 0.231 | 0.351 | 0.375 | 0.266 | 0.165 | 1.06 | 1.04 | 1.02 | 1.02 | 0.697 | 0.822 | 0.616 | 0.557
NCI-H2347 | 0.585 | 0.573 | 0.591 | 0.557 | 0.865 | 0.874 | 0.75 | 0.528 | 0.448 | 0.398 | 0.433 | 0.363 | 0.877 | 0.818 | 1.15 | 0.723 | 0.46 | 0.399 | 0.426 | 0.721
NCI-H2405 | 0.766 | 0.788 | 0.72 | 0.74 | 0.981 | 0.871 | 0.594 | 0.5 | 0.579 | 0.536 | 0.474 | 0.374 | 1.03 | 1.08 | 0.991 | 0.98 | 0.713 | 0.853 | 0.532 | 0.559
NCI-H3122 | 0.38 | 0.416 | 0.396 | 0.426 | 0.986 | 1.04 | 0.966 | 0.475 | 0.181 | 0.194 | 0.176 | 0.139 | 0.998 | 0.896 | 1.05 | 0.944 | 0.118 | 0.1 | 0.0816 | 0.084
PC-3 [JPC-3] | 0.806 | 0.807 | 0.855 | 0.852 | 0.758 | 0.749 | 0.803 | 0.496 | 0.539 | 0.494 | 0.534 | 0.456 | 1.05 | 1.12 | 0.99 | 1.04 | 0.601 | 0.652 | 0.627 | 0.705
PC-14 | 0.22 | 0.248 | 0.215 | 0.253 | 1.03 | 1.06 | 1.06 | 0.739 | 0.488 | 0.564 | 0.507 | 0.334 | 0.903 | 0.993 | 0.985 | 0.994 | 0.181 | 0.214 | 0.143 | 0.159
RERF-LC-KJ | 0.788 | 0.677 | 0.599 | 0.62 | 0.93 | 0.728 | 0.91 | 0.5 | 1.02 | 1.15 | 0.815 | 0.711 | 0.868 | 0.861 | 0.82 | 0.77 | 1.27 | 1.11 | 0.971 | 1.06
SK-LU-1 | 0.648 | 0.592 | 0.613 | 0.555 | 0.972 | 1.04 | 0.624 | 0.41 | 0.401 | 0.382 | 0.307 | 0.31 | 0.844 | 0.776 | 0.814 | 0.791 | 0.217 | 0.209 | 0.211 | 0.195
SK-MES-1 | 0.383 | 0.4 | 0.371 | 0.321 | 1.21 | 1.19 | 0.89 | 0.431 | 0.326 | 0.302 | 0.346 | 0.262 | 0.893 | 1.06 | 0.886 | 0.84 | 0.901 | 0.756 | 0.751 | 0.751
SW 1573 | 0.505 | 0.43 | 0.502 | 0.453 | 0.804 | 0.951 | 0.742 | 0.348 | 0.417 | 0.345 | 0.207 | 0.191 | 0.833 | 1.28 | 0.755 | 0.956 | 0.275 | 0.192 | 0.201 | 0.184
